Patent publication US8729053B2, “Nuclear factor kappa B pathway inhibitor composition and use of same” (The United States of America, as represented by the …, priority 2008, dated 2014)
Where a name gives a salt, the structure may show the parent alone.

Tests used:
HEK293T cells = experiment: XTT assay in HEK293T cells; format: cell-based
Experimental: To evaluate whether the compound I biological activity can imitate TAM67 specificity, three different transcriptional promoter reporters were used, AP-1, NFκB, and SRE (Serum response element) in luciferase reporter assays (FIG. 1A: The transfected cells were pre-treated with varied concentrations of compound I or DMSO for 1 hour before 18 hours stimulation by TPA (10 ng/ml) or DMSO as vehicle. An asterisk (*) indicates a separate experiment with NFκB dependent luciferase only. Assays were performed with two independent experiments each in quadruplicate.). All three activities were induced by TPA but only induction of AP-I and NFκB were inhibited by TAM67. The SRE reporter was used as a specificity control and indicator of cell proliferation. TPA-induced SRE activity was not repressed by TAM67 when coexpressed with the SRE-Luc reporter in HEK293 cells. The same concentration (10 ng/ml, 16.2 nM) and incubation time (18 hrs) were used for TPA induction as previously used for the high throughput screen (HTS) (Ruocco et al., J. Biomol. Screen., 2007, 12, 133-9) along with 1 h pretreatment of compound I. The screening results had tested concentrations as high as 40 μM compound I with cell numbers showing 95.5+/−6.2% of DMSO control (ave+/− sd, n=3) by the XTT assay in HEK293T cells.

ERK 1/2 (p42/44) = experiment: Immunoblot of TPA-induced ERK 1/2 phosphorylation; format: cell-based; details: 17.0 μM and 8.5 μM pretreatment
Experimental: To measure endogenous level of several proteins in response to TPA induction and compound I, HEK293 cells were lysed with RIPA buffer (10 mM Tris-HCl pH 7.5, 1 mM EDTA, 0.1% sodium dodecyl sulfate, 0.1% deoxycholate, and protease inhibitor). Whole cell extracts were subjected to immunoblot analysis with the following antibodies: p65 (F-6), p50 (E-10), p52 (C-5), RelB (C-19), IκBα (C-21), PCNA (F-2) were obtained from Santa Cruz Biotechnology (Santa Cruz, Calif.). IKKα, IKKβ, IKKγ, phospho-IκBα, phospho-IKKα/β, phospho-IKKγ, pohospho-Stat3 (Tyr 705 and Ser 727), phospho-p65 (Ser536 and Ser276), phospho-p44/42, phospho-JNKs were purchased from Cell Signaling (Danvers, Mass.), and α-tubulin from Sigma (St. Louis, Mo.). Nuclear and cytoplasmic extracts were prepared with HEK293 cells by NE-PER Nuclear and Cytoplasmic Extraction Reagents (Pierce Biotechnology, Rockford, Ill.) according to the manufacturer's protocol.
The selectivity of compound I was evaluated by measuring phosphorylation of proteins involved in the AP-1 induction pathway. AP-1 dependent transcription can be activated by MAP Kinases JNK, ERK 1/2 (p44/42). […] At these concentrations compound I, in contrast, completely repressed major regulators in the NFκB activation pathway. JNKs are activated by a variety of environmental stresses responsible for AP-1 activation through c-Jun phosphorylation. […]

IKKβ = biological target: T1, IKKβ (Homo sapiens, UniProt O14920); experiment: K-LISA IKKβ Inhibitor Screening Kit in vitro assay; format: biochemical; details: 0.1 to 100 μM, incubated with ATP
T1 construct: purchased Calbiochem
T1 sequence (O14920 1-756): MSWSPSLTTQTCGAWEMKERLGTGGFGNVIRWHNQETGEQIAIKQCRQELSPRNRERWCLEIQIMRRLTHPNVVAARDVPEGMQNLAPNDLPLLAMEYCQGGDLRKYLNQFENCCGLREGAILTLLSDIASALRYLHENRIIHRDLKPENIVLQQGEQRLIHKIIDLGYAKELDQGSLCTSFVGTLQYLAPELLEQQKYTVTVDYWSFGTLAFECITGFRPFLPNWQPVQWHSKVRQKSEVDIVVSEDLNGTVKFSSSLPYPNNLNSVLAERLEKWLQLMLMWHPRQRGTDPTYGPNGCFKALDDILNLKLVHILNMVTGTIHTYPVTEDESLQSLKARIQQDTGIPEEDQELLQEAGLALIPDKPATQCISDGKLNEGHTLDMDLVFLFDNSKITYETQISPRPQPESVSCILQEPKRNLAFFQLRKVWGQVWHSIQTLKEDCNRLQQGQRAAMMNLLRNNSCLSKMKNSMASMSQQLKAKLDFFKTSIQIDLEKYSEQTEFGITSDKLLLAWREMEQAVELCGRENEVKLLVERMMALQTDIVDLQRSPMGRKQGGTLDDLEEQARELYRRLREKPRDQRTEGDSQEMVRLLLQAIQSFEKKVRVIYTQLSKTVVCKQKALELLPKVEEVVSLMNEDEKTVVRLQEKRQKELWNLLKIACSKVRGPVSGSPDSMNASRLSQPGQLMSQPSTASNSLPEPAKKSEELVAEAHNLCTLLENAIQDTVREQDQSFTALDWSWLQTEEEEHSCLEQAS
Experimental: In an attempt to determine whether compound I interferes with ATP binding to the catalytic site, the activity of compound I was measured with fully activated, phosphorylated IKKα or IKKβ. […] However, whether this compound interacts outside of the ATP binding pocket of IKK as an ATP non-competitive inhibitor similar to BMS-345541 is unknown. […] Luciferase activities with TPA induction alone were set at 100% and the relative activities with TPA in the presence of compounds are shown.

[1] = tested on: MCF-7, T47D, and MDA-MB-231 breast cancer cells; experiment: XTT assay in breast cancer cells; format: cell-based; details: 10 μM
Experimental: In order to evaluate the potential therapeutic activity of the compound, tests for the biological activity of compound I were performed. The compound is non-toxic to MCF-7, T47D, and MDA-MB-231 breast cancer cells as estimated by XTT assay at 10 μM. To determine the effects of compound I on invasion by breast cancer cell lines, a matrigel invasion assay was used. The levels of phosphorylated IκBα were confirmed in TPA treated ER-positive (MCF-7 and T47D) and ER-negative (MDA-MB-231) breast cancer cell lines and compared the levels to those after pretreatment with compound I. Although induced levels of phosphorylated IκBα varied with the cell line, IκBα phosphorylation was eliminated by compound I treatment in all three breast cancer cell lines. Compound I also produced no effect on the estrogen receptor activity in the ER-positive breast cancer cells using ERE promoter luciferase reporter assay. Invasion capacity of breast cancer cells was increased by TPA stimulation compared to DMSO treated vehicle control. […] Following anchorage-independent colony induction in TPA-treated cells without or with compound I, colonies were lysed and measured with CyQuant GR Dye to detect DNA by fluorescence plate reader as a measure of colony count. Total transformed colony numbers were calculated from RFU and cell dose curve of JB6 cells. […]

Cell numbers, % of DMSO control (ave+/− sd, n=3) (HEK293T cells; 40 μM, XTT assay, HEK293T): 95.5+/−6.2% | Inhibition of phosphorylation of IκBα peptide substrate catalyzed by IKKβ (IKKβ): no inhibition
Compound: Cc1cc(N)ccc1N=Nc1ccc(S(=O)(=O)CCOS(=O)(=O)O)cc1 [compound I, 2-(4-((4-amino-2-methylphenyl)diazenyl)phenylsulfonyl)ethyl hydrogen sulfate]
Cytotoxic or cytostatic activity (HEK293T cells; HEK293 cells): neither cytotoxic nor cytostatic activity | TPA-induced phosphorylation of endogenous ERK 1/2 (p42/44) (ERK 1/2 (p42/44)): no repression | Toxicity estimated by XTT assay [1]: non-toxic
